Test systems include UACC-62 melanoma; UO-31 renal; OVCAR-3 ovarian; PC-3 prostate; SNB-19 CNS; 786-0 renal; HCC-2998 colon; A498 renal; SF-295 CNS; SF-539 CNS.
What all share (assay): growth of human tumour cells (NCI), 48 h

The structures appear in SMILES notation.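 Assay format: 96-well plates, 48-hour exposure. GI50 marks 50% less growth. TGI denotes the concentration required for complete inhibition of growth.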

With `Cc1nc2sc3c(N)ncnc3c2c(C)c1C`, the GI50 in the assay on UACC-62 melanoma, with UO-31 renal, with OVCAR-3 ovarian, in the assay on PC-3 prostate, with SNB-19 CNS and with 786-0 renal was over 25000 nM throughout. For the same compound, the GI50 with HCC-2998 colon was over 25000 nM; in the assay on A498 renal it was over 25 µM; in the assay with SF-295 CNS it was over 25000 nM; in the assay with SF-539 CNS, over 25000 nM. The TGI in the assay with UACC-62 melanoma, in the assay on UO-31 renal, with OVCAR-3 ovarian, in the assay with PC-3 prostate, with SNB-19 CNS and with 786-0 renal was over 25 µM each time. Further, the TGI with HCC-2998 colon, in the assay with A498 renal, in the assay on SF-295 CNS and with SF-539 CNS was over 25 µM in each case.

Take `CCOc1ccc(C(C[N+](=O)[O-])Sc2ccccc2N)cc1` (stereo not given): the GI50 was 10000 nM in the assay with UACC-62 melanoma; 2050 nM in the assay on UO-31 renal; 2920 nM in the assay with OVCAR-3 ovarian; 4020 nM in the assay on PC-3 prostate; 9220 nM in the assay on SNB-19 CNS; 5110 nM with 786-0 renal. Further, the GI50 was 1770 nM in the assay on HCC-2998 colon, 12.5 µM with A498 renal, 4390 nM with SF-295 CNS and 1890 nM in the assay on SF-539 CNS. The TGI with UACC-62 melanoma amounted to 21.6 µM; with UO-31 renal it was 18.2 µM; in the assay with OVCAR-3 ovarian, 12 µM; in the assay with PC-3 prostate, 17.3 µM; in the assay on SNB-19 CNS it was 21.2 µM; in the assay with 786-0 renal, 17.1 µM. Further, the TGI is 3.25 µM with HCC-2998 colon, 25 µM with A498 renal, 17.3 µM in the assay with SF-295 CNS and 3.94 µM with SF-539 CNS.

`O=C1Cc2cc(CCn3cncn3)c(Cl)cc2N1`: the GI50 was 20700 nM with UACC-62 melanoma; over 100000 nM in the assay on UO-31 renal; over 100000 nM with OVCAR-3 ovarian; over 100000 nM with PC-3 prostate; 70700 nM in the assay on SNB-19 CNS; over 100000 nM in the assay with 786-0 renal. For the same compound, the GI50 in the assay with HCC-2998 colon was over 100000 nM; in the assay with A498 renal it was 32.5 µM; in the assay on SF-295 CNS, 37100 nM; in the assay on SF-539 CNS it was over 100000 nM. The TGI in the assay with UACC-62 melanoma, with UO-31 renal, in the assay with OVCAR-3 ovarian, with PC-3 prostate, in the assay on SNB-19 CNS and in the assay with 786-0 renal was over 100 µM throughout. The TGI in the assay with HCC-2998 colon, with A498 renal, in the assay on SF-295 CNS and with SF-539 CNS was over 100 µM each time.

`O=C(Nc1ccccc1)OC1OC(COC(=O)c2ccccc2)C(OC(=O)c2ccccc2)C1OS(=O)(=O)c1ccc([N+](=O)[O-])cc1` (stereo not given): the TGI with UACC-62 melanoma, in the assay on UO-31 renal, with OVCAR-3 ovarian, with PC-3 prostate, with SNB-19 CNS and in the assay on 786-0 renal was over 100 µM throughout. For the same compound, the TGI in the assay on HCC-2998 colon, in the assay on A498 renal, in the assay on SF-295 CNS and in the assay with SF-539 CNS was over 100 µM throughout.

On to `C#C[C@@]1(O)[C@@H](CO)O[C@@H](n2cc(C(F)(F)F)c3c(N)ncnc32)[C@@H]1O`, for which the GI50 was 707 nM with UACC-62 melanoma; 311 nM in the assay with UO-31 renal; 727 nM with OVCAR-3 ovarian; 427 nM with PC-3 prostate; 1530 nM with SNB-19 CNS; 2070 nM with 786-0 renal. Further, the GI50 with HCC-2998 colon is 423 nM; in the assay on A498 renal it was 0.168 µM; in the assay on SF-295 CNS, 2180 nM; with SF-539 CNS, 860 nM. The TGI was 2.63 µM with UACC-62 melanoma; 3.16 µM with UO-31 renal; 4.89 µM with OVCAR-3 ovarian; over 21.1 µM in the assay on PC-3 prostate; over 100 µM in the assay with SNB-19 CNS; over 100 µM in the assay on 786-0 renal. Also, the TGI amounted to 4.24 µM in the assay with HCC-2998 colon, 0.533 µM in the assay on A498 renal, 8.09 µM in the assay on SF-295 CNS and 2.71 µM in the assay with SF-539 CNS.

For `Clc1cccc(CNc2c3ccccc3nc3ccccc23)c1`, the GI50 with UACC-62 melanoma was 1870 nM; with UO-31 renal, 1140 nM; in the assay with OVCAR-3 ovarian it was 2100 nM; with PC-3 prostate, 1640 nM; in the assay with SNB-19 CNS, 2890 nM; in the assay on 786-0 renal it was 1660 nM. For the same compound, the GI50 in the assay on HCC-2998 colon is 1650 nM; in the assay on A498 renal, 1.3 µM; in the assay on SF-295 CNS, 1510 nM; in the assay with SF-539 CNS, 1780 nM. Moreover, the TGI is 3.98 µM in the assay on UACC-62 melanoma; 3.13 µM in the assay with UO-31 renal; 4.56 µM with OVCAR-3 ovarian; 4.65 µM in the assay with PC-3 prostate; 12.4 µM in the assay with SNB-19 CNS; 3.2 µM in the assay on 786-0 renal. Also, the TGI turned out to be 3.19 µM in the assay with HCC-2998 colon, 2.67 µM in the assay on A498 renal, 3.08 µM in the assay with SF-295 CNS and 3.32 µM in the assay with SF-539 CNS.

Regarding `CCCCOc1ccc(/C=N/Nc2cc(C)nc3ccc(Br)cc23)cc1`, the GI50 in the assay on UACC-62 melanoma was 1740 nM; in the assay on UO-31 renal, 1480 nM; with OVCAR-3 ovarian, 2060 nM; in the assay on PC-3 prostate, 1750 nM; with SNB-19 CNS it was 1860 nM; with 786-0 renal, 1830 nM. Further, the GI50 with HCC-2998 colon was 2120 nM; in the assay on A498 renal it was 1.48 µM; with SF-295 CNS, 1820 nM; in the assay on SF-539 CNS it was 1840 nM. The TGI came to 3.26 µM in the assay with UACC-62 melanoma; 2.82 µM with UO-31 renal; 3.84 µM in the assay on OVCAR-3 ovarian; 3.37 µM in the assay on PC-3 prostate; 3.41 µM in the assay with SNB-19 CNS; 3.37 µM in the assay with 786-0 renal. Also, the TGI came out at 3.73 µM in the assay on HCC-2998 colon, 2.85 µM with A498 renal, 3.36 µM in the assay with SF-295 CNS and 3.29 µM with SF-539 CNS.

Turning to `CCOC(=O)c1c(C)nc2c(c1N)/C(=C/c1ccccn1)C(=O)N2Cc1ccccc1`, the GI50 in the assay with UACC-62 melanoma was 940 nM; with UO-31 renal, 691 nM; in the assay on OVCAR-3 ovarian, 900 nM; with PC-3 prostate, 1170 nM; with SNB-19 CNS, 1090 nM; in the assay with 786-0 renal it was 867 nM. The GI50 was 895 nM with HCC-2998 colon, 1.54 µM in the assay with A498 renal, 1900 nM in the assay with SF-295 CNS and 882 nM in the assay on SF-539 CNS. Also, the TGI in the assay with UACC-62 melanoma was determined as 1.96 µM; in the assay with UO-31 renal, 1.37 µM; in the assay with OVCAR-3 ovarian it was 1.71 µM; with PC-3 prostate, 2.64 µM; in the assay on SNB-19 CNS, 2.49 µM; in the assay with 786-0 renal it was 1.68 µM. Further, the TGI in the assay on HCC-2998 colon was 1.77 µM; in the assay with A498 renal, over 50 µM; in the assay on SF-295 CNS, over 50 µM; with SF-539 CNS, 1.77 µM.

As for `COc1cc(-c2nc3ccccc3o2)cc(CN2CCCCC2)c1O`, the GI50 is 1630 nM with UACC-62 melanoma; 1920 nM in the assay on UO-31 renal; 2750 nM with OVCAR-3 ovarian; 664 nM in the assay with PC-3 prostate; 5440 nM in the assay with SNB-19 CNS; 20300 nM in the assay with 786-0 renal. Moreover, the GI50 with HCC-2998 colon is 4730 nM; with A498 renal it was 10 µM; with SF-295 CNS, 1850 nM; with SF-539 CNS, 2930 nM. For the same compound, the TGI was 3.2 µM in the assay on UACC-62 melanoma; 21.8 µM in the assay on UO-31 renal; 39.7 µM in the assay with OVCAR-3 ovarian; over 100 µM in the assay on PC-3 prostate; 26.9 µM in the assay on SNB-19 CNS; 89.8 µM in the assay with 786-0 renal. Further, the TGI in the assay on HCC-2998 colon came out at 22.4 µM; in the assay on A498 renal, 24.5 µM; in the assay with SF-295 CNS, 6.6 µM; with SF-539 CNS, 7.68 µM.

As to `COc1cc2c(c(OC)c1OC)-c1ccc(SC)c(=O)cc1[C@@H](NC(=O)C(F)(F)F)CC2`, the TGI in the assay on UACC-62 melanoma was over 100 µM; with UO-31 renal it was over 95.7 µM; with OVCAR-3 ovarian, 1.3 µM; in the assay with PC-3 prostate it was over 100 µM; with SNB-19 CNS, over 100 µM; in the assay on 786-0 renal, 38.6 µM. For the same compound, the TGI was over 71.3 µM in the assay on HCC-2998 colon, 1.86 µM in the assay on A498 renal, under 0.01 µM with SF-295 CNS and under 0.01 µM in the assay on SF-539 CNS.

As to `O=C(Nc1cc(F)c(F)cc1C(=O)O)c1ccc(-n2ccnc2)nn1`, the GI50 in the assay with UACC-62 melanoma is over 100000 nM; in the assay with UO-31 renal, over 100000 nM; in the assay on OVCAR-3 ovarian, 42400 nM; with PC-3 prostate, over 100000 nM; in the assay with SNB-19 CNS it was over 100000 nM; in the assay on 786-0 renal, over 100000 nM. The GI50 in the assay with HCC-2998 colon was over 100000 nM; in the assay with A498 renal it was 13 µM; in the assay on SF-295 CNS, over 100000 nM; with SF-539 CNS, 34400 nM. Besides, the TGI in the assay on UACC-62 melanoma, with UO-31 renal, in the assay with OVCAR-3 ovarian, with PC-3 prostate, in the assay with SNB-19 CNS and in the assay with 786-0 renal was over 100 µM each time. The TGI was over 100 µM in the assay on HCC-2998 colon, 82 µM in the assay on A498 renal, over 100 µM with SF-295 CNS and over 100 µM in the assay with SF-539 CNS.

Turning to `O=C(/C=C/c1ccccn1)c1ccc(OCc2nnc(-c3ccc(Cl)cc3)o2)cc1`, the GI50 in the assay with UACC-62 melanoma was 1830 nM; in the assay on UO-31 renal, 1810 nM; in the assay with OVCAR-3 ovarian, 1730 nM; with PC-3 prostate, 1870 nM; with SNB-19 CNS, 1860 nM; with 786-0 renal, 1780 nM. Also, the GI50 in the assay on HCC-2998 colon is 1800 nM; with A498 renal it was 4.5 µM; with SF-295 CNS it was 1680 nM; in the assay with SF-539 CNS, 1660 nM. Moreover, the TGI with UACC-62 melanoma worked out at 3.55 µM; with UO-31 renal, 3.26 µM; in the assay on OVCAR-3 ovarian, 3.25 µM; in the assay on PC-3 prostate it was 3.9 µM; in the assay on SNB-19 CNS, 3.98 µM; in the assay on 786-0 renal, 3.23 µM. The TGI in the assay with HCC-2998 colon stood at 3.26 µM; in the assay with A498 renal, 17.2 µM; with SF-295 CNS, 3.33 µM; in the assay on SF-539 CNS, 3.09 µM.

Source of the values: PubChem BioAssay (NCI).
